This data set relates to Salmonella typhimurium TA 1535. As to the kind of experiment: Mutagenicity test (AMES Test, OECD Guidelines for Testing of Chemicals No. 471). The class given is cell-based. The conditions noted are these: without dilution. From the text: One of the important consideration published in the European Commission 2005/69/EC (European legislation) confirmed the restriction that the level of 8 Grimmers PAHs especially Benzo(a)pyrene (BaP) with amount exceeding the allowed limit will be considered as carcinogenic, mutagenic and toxic, and thereby will be prohibited to produce and distribute within the European legislation area. The presence of PAHs can be detected qualitatively and quantitatively using Benzo(a)Pyrene (BaP) as marker. Commonly known method to measure carcinogenic and mutagenic compound is ASTM E 1687-98 method (Ames test method for determining carcinogenic potential of Virgin Base Oils in Metalworking Fluids) and also Ames test based on OECD Guidelines for Testing of Chemicals No 471(1997). In the present invention method of AMES test using Salmonella typhimurium TA 1535 as microbes that is very sensitive to mutagenic compounds.
The mutagenity test was conducted using AMES Test based on OECD Guidelines for Testing of Chemicals No. 471 (1997). In this test Salmonella typhimurium TA 1535 was used as microbe material which was very sensitive to mutagenic compound. The number of colony which grew was an indicator of mutagenic activity of the PAH compound in the DAE Feed, TDAE-1 and TDAE-2, respectively. […]

Regarding `C[S+](C)[O-]` [DMSO, dimethylsulfoxide], the “Average Number of Colony Koloni” value reads like this: (With S-9 Mix) 377; (Without S-9 Mix) 314.
